The values that follow come from patent US8969565B2, “Imidazo[1,2-b]pyridazine-based compounds, compositions comprising them, and methods of their use” (Lexicon Pharmaceuticals, Inc., priority 2012, dated 2015).

Each structure is given as a SMILES string.

The target in the assay is T1, AAK1 (Homo sapiens, UniProt Q2M2I8).
T1 construct: HA; expressed in transfected cells; host or cells: HEK293F
T1 sequence (Q2M2I8 1-863 isoform Q2M2I8-2): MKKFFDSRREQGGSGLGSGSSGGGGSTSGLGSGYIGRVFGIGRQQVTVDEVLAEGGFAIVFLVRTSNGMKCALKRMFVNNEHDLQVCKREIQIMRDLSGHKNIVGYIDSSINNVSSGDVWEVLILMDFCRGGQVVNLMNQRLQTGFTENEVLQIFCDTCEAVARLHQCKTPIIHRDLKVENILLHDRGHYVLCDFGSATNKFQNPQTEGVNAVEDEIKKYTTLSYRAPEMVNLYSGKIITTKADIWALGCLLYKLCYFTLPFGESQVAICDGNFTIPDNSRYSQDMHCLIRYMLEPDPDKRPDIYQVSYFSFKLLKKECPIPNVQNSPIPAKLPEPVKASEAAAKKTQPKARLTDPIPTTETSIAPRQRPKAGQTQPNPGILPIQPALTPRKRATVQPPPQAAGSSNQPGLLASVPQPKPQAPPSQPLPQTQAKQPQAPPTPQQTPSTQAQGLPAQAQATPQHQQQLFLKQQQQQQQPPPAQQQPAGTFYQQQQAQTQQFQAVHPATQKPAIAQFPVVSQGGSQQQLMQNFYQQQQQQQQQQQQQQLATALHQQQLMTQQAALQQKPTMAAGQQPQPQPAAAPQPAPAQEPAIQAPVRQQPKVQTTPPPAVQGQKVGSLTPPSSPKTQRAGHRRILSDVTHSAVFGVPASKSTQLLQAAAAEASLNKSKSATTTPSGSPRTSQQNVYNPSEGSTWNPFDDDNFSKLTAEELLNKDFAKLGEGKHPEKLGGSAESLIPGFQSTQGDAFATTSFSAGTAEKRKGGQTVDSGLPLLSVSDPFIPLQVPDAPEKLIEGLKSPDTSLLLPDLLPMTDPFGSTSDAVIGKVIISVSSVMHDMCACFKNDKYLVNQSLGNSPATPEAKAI
In words: HEK281 cell-based assay (phospho-mu2 Western blot in transfected HEK293F cells). The conditions noted are these: 3 hours incubation, read-out: CBA IC50. The procedure: HEK293F cells were cultured in media containing DMEM (Gibco, cat. #11965), 10% FBS (SAFC Biosciences, cat. #12103C), 1×GPS (glutamine, penicillin and streptomycin). On day one, cells were plated on a 10 cm dish so that they are ˜80% confluent at time of transfection. Roughly 12 million cells were in a 10 cm dish at time of transfection. On day two, each dish was transfected with 48 ug DNA and 144 ul Lipofectamine 2000 (Invitrogen, cat.#11668-019). The DNA was comprised of a mixture (per 10 cm dish) containing 3 ug AAK1/HA/pIRES (full length human, NCBI accession no. NP_055726.2), 45 μg Flag/AP2MI/pcDNA (full length human), and 1.5 ml OPTI-MEM. The Lipofectamine 2000 is made up of a mixture (per 10 cm dish) containing 144 μl Lipofectamine 2000 and 1.5 ml OPTI-MEM. Each mixture was transferred to individual 15 ml tubes and incubated at RT for 5 minutes, and then the two mixes were combined and incubated at RT for 20 minutes. Growth media was then aspirated from each 10 cm plate and replaced with 10 ml of DMEM+10% FBS (no GPS). Finally, 3 ml DNA/Lipofectamine mix was added to each 10 cm dish and mix gently followed by incubate of plate overnight at 37° C. and 5% CO2.
On day three, compounds were diluted in 100% DMSO at 1000× final concentration, followed by 3-fold serial dilutions for a total of 5 concentrations tested. Four compounds were tested per 10 cm dish. One ul of each compound dilution was then pipetted into a deep-well, 96-well plate, followed by addition of 500 μl DMEM+0.5% FBS into each well for a 2× final concentration of each compound. Cells were resuspended in a 10 cm dish by simple pipetting (HEK293 cells come off the plate that easy at this point) and then transferred to a 50 ml conical tube and pelleted by centrifugation at 1000 rpm for 5 min. Cell pellets were then resuspended in 2.75 ml DMEM+0.5% FBS per 10 cm dish and 100 μl of cell suspension transferred into each well of 96-well TC plate. Finally, 100 μl of 2× compound diluted in DMEM+0.5% FBS was then added into wells containing cell suspension for a 1× final concentration. Plates were then incubated at 37° C. and 5% CO2 for 3 hours followed by transferring of cell suspensions from each well into 12-tube PCR strips. The PCR strips were spun in a tip rack at 1000 rpm for 5 minutes to pellet cells and media was then removed by pipetting without disturbing the cell pellet.
To prepare for Western Blot analysis, cell pellets were resuspend in 40 ul 1×LDS-PAGE sample buffer (Invitrogen, cat.#NP0008)+2× Halt phophatase and protease inhibitor cocktail (Thermo Scientific, cat.#1861284), followed by sonicating each with microtip sonicator set at 5 for 8-10 seconds. Five ul of 10× NuPage Sample Reducing Agent (with 50 mM DTT) was to each sample followed by heat denaturing at 70 C for 10 min on PCR machine. A total of 10 μl per sample was loaded into each lane of a 4-20% Tris-Glycine Criterion 26-well gel (Biorad, cat.#345-0034) for the phospho-mu2 blot and 10 μl per lane in a 4-12% Bis-Tris (+MES buffer) NuPAGE 26-well gel (Invitrogen, cat.#WG1403BX10) for the mu2 blot. For controls, 2 ng of phospho-mu2 or 20 ng mu2/Flag proteins were loaded in the last well of each gel. After SDS-PAGE, samples on each gel were transferred to PVDF membrane using an iBlot and membranes were blocked for one hour in TBST+5% milk, followed by wash 3× for 5-10 min with TBST. Criterion gels were probed with rabbit anti-phospho-mu2 (1:5000; a rabbit polyclonal antibody produced by New England Peptide and affinity purified at Lexicon) in TBST+5% BSA, whereas, NuPAGE gels were probed with mouse anti-Flag (1:500; Sigma, cat.#F1804) in TBST+5% milk, and these primary antibodies were incubated overnight at 4° C. on a rocker.
Regarding `CC(C)(C)N1CCN(CCNc2ccc3ncc(-c4ccc(CN)cc4)n3n2)C1=O` [1-(2-((3-(4-(aminomethyl)phenyl)imidazo[1,2-b]pyridazin-6-yl)amino)ethyl)-3-(tert-butyl)imidazolidin-2-one], the concentration for half-maximal inhibition (IC50) is no more than 100 nM.

As to `COc1cnccc1-c1cnc2ccc(N3CCN(C(=O)CC(C)(C)C)CC3)nn12` [1-(4-(3-(3-methoxypyridin-4-yl)imidazo[1,2-b]pyridazin-6-yl)piperazin-1-yl)-3,3-dimethylbutan-1-one], the half-maximal inhibitory concentration (IC50) was no more than 100 nM.

As to `CC(=O)c1ccc(-c2cnc3ccc(NCCN(C)c4ccccc4)nn23)s1` [1-(5-(6-((2-(methyl(phenyl)amino)ethyl)amino)imidazo[1,2-b]pyridazin-3-yl)thiophen-2-yl)ethanone], the IC50 is no more than 100 nM.

On to `CNCCCNc1ccc2ncc(-c3ccc(C(C)=O)s3)n2n1` [1-(5-(6-((3-(methylamino)propyl)amino)imidazo[1,2-b]pyridazin-3-yl)thiophen-2-yl)ethanone], for which the half-maximal inhibitory concentration (IC50) was no more than 1000 nM.

With `COCCCNc1ccc2ncc(-c3ccc(C(C)=O)s3)n2n1` [1-(5-(6-((3-methoxypropyl)amino)imidazo[1,2-b]pyridazin-3-yl)thiophen-2-yl)ethanone], the IC50 is no more than 1000 nM.

Take `CCCCN(C)c1ccc2ncc(-c3ccc(C(C)=O)s3)n2n1` [1-(5-(6-(butyl(methyl)amino)imidazo[1,2-b]pyridazin-3-yl)thiophen-2-yl)ethanone]: the IC50 is no more than 100 nM.

For `CC(=O)c1ccc(-c2cnc3ccc(NCC(C)C)nn23)s1` [1-(5-(6-(isobutylamino)imidazo[1,2-b]pyridazin-3-yl)thiophen-2-yl)ethanone], the IC50 is no more than 1000 nM.

Take `CCCNc1ccc2ncc(-c3ccc(C(C)=O)s3)n2n1` [1-(5-(6-(propylamino)imidazo[1,2-b]pyridazin-3-yl)thiophen-2-yl)ethanone]: the IC50 is no more than 1000 nM.

Take `COc1cnccc1-c1cnc2ccc(NCCN3CCN(C(C)(C)C)C3=O)nn12` [1-(tert-butyl)-3-(2-((3-(3-methoxypyridin-4-yl)imidazo[1,2-b]pyridazin-6-yl)amino)ethyl)imidazolidin-2-one]: the half-maximal inhibitory concentration (IC50) was no more than 100 nM.

For the molecule `COc1cnccc1-c1cnc2ccc(NCCN(C(=O)OCCF)C(C)C)nn12` [2-fluoroethyl isopropyl(2-((3-(3-methoxypyridin-4-yl)imidazo[1,2-b]pyridazin-6-yl)amino)ethyl)carbamate], the IC50 is no more than 1000 nM.

`Cc1nc(C)c(-c2cnc3ccc(NCCOCC(C)C)nn23)s1` [3-(2,4-dimethylthiazol-5-yl)-N-(2-isobutoxyethyl)imidazo[1,2-b]pyridazin-6-amine]: the 50% inhibitory concentration (IC50) is no more than 1000 nM.

Take `CC(C)(C)OCCCNc1ccc2ncc(-c3ccnc(N)c3)n2n1` [3-(2-aminopyridin-4-yl)-N-(3-(tert-butoxy)propyl)imidazo[1,2-b]pyridazin-6-amine]: the IC50 was no more than 1000 nM.

With `CCCCNc1ccc2ncc(-c3ccnc(N)c3)n2n1` [3-(2-aminopyridin-4-yl)-N-butylimidazo[1,2-b]pyridazin-6-amine], the IC50 is no more than 1000 nM.

Turning to `COc1ncccc1-c1cnc2ccc(NCC3CCOC3)nn12` (stereo not drawn) [3-(2-methoxypyridin-3-yl)-N-((tetrahydrofuran-3-yl)methyl)imidazo[1,2-b]pyridazin-6-amine], the IC50 is no more than 1000 nM.

Consider `COc1cnccc1-c1cnc2ccc(NCCCC(F)(F)F)nn12` [3-(3-methoxypyridin-4-yl)-N-(4,4,4-trifluorobutyl)imidazo[1,2-b]pyridazin-6-amine], for which the IC50 is no more than 10 nM.

For `CCCCNc1ccc2ncc(-c3ccc(OCCN)cc3)n2n1` [3-(4-(2-aminoethoxy)phenyl)-N-butylimidazo[1,2-b]pyridazin-6-amine], the IC50 is no more than 100 nM.

Consider `CC(C)(C)CCNc1ccc2ncc(-c3ccc(OCCCN)cc3)n2n1` [3-(4-(3-aminopropoxy)phenyl)-N-(3,3-dimethylbutyl)imidazo[1,2-b]pyridazin-6-amine], for which the IC50 was no more than 100 nM.

For `NCCCOc1ccc(-c2cnc3ccc(NCCCc4ccccc4)nn23)cc1` [3-(4-(3-aminopropoxy)phenyl)-N-(3-phenylpropyl)imidazo[1,2-b]pyridazin-6-amine], the IC50 is no more than 100 nM.

On to `CC(C)(C)CCNc1ccc2ncc(-c3ccc(COCCN)cc3)n2n1` [3-(4-((2-aminoethoxy)methyl)phenyl)-N-(3,3-dimethylbutyl)imidazo[1,2-b]pyridazin-6-amine], for which the IC50 is no more than 100 nM.

`CCCCCNc1ccc2ncc(-c3ccc(CNCCOC)cc3)n2n1` [3-(4-(((2-methoxyethyl)amino)methyl)phenyl)-N-pentylimidazo[1,2-b]pyridazin-6-amine]: the IC50 was no more than 1000 nM.

In the case of `CCCCNc1ccc2ncc(-c3ccc(CN)cc3)n2n1` [3-(4-(Aminomethyl)phenyl)-N-butylimidazo[1,2-b]pyridazin-6-amine], the IC50 is no more than 1000 nM.

As for `NCc1ccc(-c2cnc3ccc(NC4COC5(CCCC5)C4)nn23)cc1` (stereo not drawn) [3-(4-(aminomethyl)phenyl)-N-(1-oxaspiro[4.4]nonan-3-yl)imidazo[1,2-b]pyridazin-6-amine], the IC50 was no more than 100 nM.

`NCc1ccc(-c2cnc3ccc(NCCOC4CCCC4)nn23)cc1` [3-(4-(aminomethyl)phenyl)-N-(2-(cyclopentyloxy)ethyl)imidazo[1,2-b]pyridazin-6-amine]: the IC50 was no more than 100 nM.

For the molecule `CC(C)(C)COCCNc1ccc2ncc(-c3ccc(CN)cc3)n2n1` [3-(4-(aminomethyl)phenyl)-N-(2-(neopentyloxy)ethyl)imidazo[1,2-b]pyridazin-6-amine], the IC50 is no more than 100 nM.

For the molecule `CC(C)(C)OCCNc1ccc2ncc(-c3ccc(CN)cc3)n2n1` [3-(4-(aminomethyl)phenyl)-N-(2-(tert-butoxy)ethyl)imidazo[1,2-b]pyridazin-6-amine], the IC50 was no more than 100 nM.

Regarding `NCc1ccc(-c2cnc3ccc(NCCc4ccccc4OC(F)(F)F)nn23)cc1` [3-(4-(aminomethyl)phenyl)-N-(2-(trifluoromethoxy)phenethyl)imidazo[1,2-b]pyridazin-6-amine], the IC50 is no more than 10 nM.

As to `NCc1ccc(-c2cnc3ccc(NCCC4CCCCC4)nn23)cc1` [3-(4-(aminomethyl)phenyl)-N-(2-cyclohexylethyl)imidazo[1,2-b]pyridazin-6-amine], the IC50 is no more than 100 nM.

Consider `NCc1ccc(-c2cnc3ccc(NCCC4CC4)nn23)cc1` [3-(4-(aminomethyl)phenyl)-N-(2-cyclopropylethyl)imidazo[1,2-b]pyridazin-6-amine], for which the IC50 was no more than 1000 nM.

With `CCOc1ccccc1CCNc1ccc2ncc(-c3ccc(CN)cc3)n2n1` [3-(4-(aminomethyl)phenyl)-N-(2-ethoxyphenethyl)imidazo[1,2-b]pyridazin-6-amine], the IC50 was no more than 100 nM.

With `NCc1ccc(-c2cnc3ccc(NCCc4ccccc4F)nn23)cc1` [3-(4-(aminomethyl)phenyl)-N-(2-fluorophenethyl)imidazo[1,2-b]pyridazin-6-amine], the half-inhibitory concentration (IC50) is no more than 100 nM.

`CC(C)COCCNc1ccc2ncc(-c3ccc(CN)cc3)n2n1` [3-(4-(aminomethyl)phenyl)-N-(2-isobutoxyethyl)imidazo[1,2-b]pyridazin-6-amine]: the concentration for half-maximal inhibition (IC50) was no more than 100 nM.

Take `CC(C)OCCNc1ccc2ncc(-c3ccc(CN)cc3)n2n1` [3-(4-(aminomethyl)phenyl)-N-(2-isopropoxyethyl)imidazo[1,2-b]pyridazin-6-amine]: the IC50 is no more than 100 nM.

Regarding `COc1ccccc1CCNc1ccc2ncc(-c3ccc(CN)cc3)n2n1` [3-(4-(aminomethyl)phenyl)-N-(2-methoxyphenethyl)imidazo[1,2-b]pyridazin-6-amine], the IC50 was no more than 10 nM.

By IC50 is commonly meant the concentration that inhibits the measured activity by half.
